{
  "source": "patent US11446287B2",
  "about": "“Compounds and methods for EP300 or CBP modulation and indications therefor” (Opna Immuno-Oncology SA, priority 2019, dated 2022)",
  "data": [
    {"target": "T1, Recombinant human BRD4 containing dual bromodomains (BRD4-BD12 (1-477)) (Homo sapiens, UniProt O60885)", "T1 construct": "Recombinant human BRD4 containing dual bromodomains (BRD4-BD12 (1-477)); made in house; host or cells: E. coli BL21-CodonPlus (DE3), modified pET vector", "experiment": "BRD4 Alphascreen binding assay", "how_it_was_run": "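His-tagged human BRD4 tandem bromodomains (1-477, E. coli) incubated 1 h at room temperature with biotinylated tetra-acetylated H4 (1-21) peptide and compound in HEPES pH 7.5 buffer with 2 mM DTT. AlphaScreen signal read 30 min after adding beads (7.5 μg/ml); IC50 from four-parameter fit after normalization to controls.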", "units": {"IC50": "µM"}, "values": [
      {"smiles": "Cc1noc(C)c1-c1cnc2c(c1)c(-c1ccc(C(N)=O)cc1)cn2C(c1ccccn1)C1CCCC1", "note": "(stereo not drawn) [P-0020, 4-(1-(cyclopentyl(pyridin-2-yl)methyl)-5-(3,5-dimethylisoxazol-4-yl)-1H-pyrrolo[2,3-b]pyridin-3-yl)benzamide]", "IC50": "1 to 8"},
      {"smiles": "CNC(=O)c1ccc(-c2cn(C(c3ccccn3)C3CCCC3)c3ncc(-c4c(C)noc4C)cc23)cc1", "note": "(stereo not drawn) [P-0021, 4-(1-(cyclopentyl(pyridin-2-yl)methyl)-5-(3,5-dimethylisoxazol-4-yl)-1H-pyrrolo[2,3-b]pyridin-3-yl)-N-methylbenzamide]", "IC50": "1 to 8"},
      {"smiles": "Cc1noc(C)c1-c1cnc2c(c1)c(-c1ccc(C#N)cc1)cn2C(c1ccccn1)C1CCCC1", "note": "(stereo not drawn) [P-0022, 4-(1-(cyclopentyl(pyridin-2-yl)methyl)-5-(3,5-dimethylisoxazol-4-yl)-1H-pyrrolo[2,3-b]pyridin-3-yl)benzonitrile]", "IC50": "8 to 1000"},
      {"smiles": "Cc1noc(C)c1-c1cnc2c(c1)c(-c1ccc3c(c1)CNC3=O)cn2C(c1ccccn1)C1CCCC1", "note": "(stereo not drawn) [P-0023, 5-(1-(cyclopentyl(pyridin-2-yl)methyl)-5-(3,5-dimethylisoxazol-4-yl)-1H-pyrrolo[2,3-b]pyridin-3-yl)isoindolin-1-one]", "IC50": "1 to 8"},
      {"smiles": "Cc1noc(C)c1-c1cnc2c(c1)c(-c1ccc(-c3nn[nH]n3)cc1)cn2C(c1ccccn1)C1CCCC1", "note": "(stereo not drawn) [P-0024, 4-(3-(4-(2H-tetrazol-5-yl)phenyl)-1-(cyclopentyl(pyridin-2-yl)methyl)-1H-pyrrolo[2,3-b]pyridin-5-yl)-3,5-dimethylisoxazole]", "IC50": "8 to 1000"},
      {"smiles": "Cc1noc(C)c1-c1cnc2c(c1)c(-c1ccc(C(=O)O)c(F)c1)cn2C(c1ccccn1)C1CCCC1", "note": "(stereo not drawn) [P-0025, 4-(1-(cyclopentyl(pyridin-2-yl)methyl)-5-(3,5-dimethylisoxazol-4-yl)-1H-pyrrolo[2,3-b]pyridin-3-yl)-2-fluorobenzoic acid]", "IC50": "1 to 8"},
      {"smiles": "Cc1noc(C)c1-c1cnc2c(c1)c(-c1ccc(C(=O)O)nc1)cn2C(c1ccccn1)C1CCCC1", "note": "(stereo not drawn) [P-0026, 5-(1-(cyclopentyl(pyridin-2-yl)methyl)-5-(3,5-dimethylisoxazol-4-yl)-1H-pyrrolo[2,3-b]pyridin-3-yl)picolinic acid]", "IC50": "1 to 8"},
      {"smiles": "Cc1cc(-c2c(C(F)(F)F)n([C@@H](C)c3ccccn3)c3cc(-c4c(C)noc4C)cnc23)ccc1C(=O)O", "note": "[P-0243, (S)-4-(6-(3,5-dimethylisoxazol-4-yl)-1-(1-(pyridin-2-yl)ethyl)-2-(trifluoromethyl)-1H-pyrrolo[3,2-b]pyridin-3-yl)-2-methylbenzoic acid]", "IC50": "1 to 8"},
      {"smiles": "COc1cc(-c2c(C(F)(F)F)n([C@@H](C)c3ccccn3)c3cc(-c4c(C)noc4C)cnc23)ccc1C(=O)O", "note": "[P-0244, (S)-4-(6-(3,5-dimethylisoxazol-4-yl)-1-(1-(pyridin-2-yl)ethyl)-2-(trifluoromethyl)-1H-pyrrolo[3,2-b]pyridin-3-yl)-2-methoxybenzoic acid]", "IC50": "1 to 8"},
      {"smiles": "Cc1noc(C)c1-c1cnc2c(-c3cccc(C(=O)O)c3F)c(C(F)(F)F)n([C@@H](C)c3ccccn3)c2c1", "note": "[P-0245, (S)-3-(6-(3,5-dimethylisoxazol-4-yl)-1-(1-(pyridin-2-yl)ethyl)-2-(trifluoromethyl)-1H-pyrrolo[3,2-b]pyridin-3-yl)-2-fluorobenzoic acid]", "IC50": "8 to 1000"},
      {"smiles": "Cc1noc(C)c1-c1cnc2c(-c3cccc(C(=O)O)c3C)c(C(F)(F)F)n([C@@H](C)c3ccccn3)c2c1", "note": "[P-0246, (S)-3-(6-(3,5-dimethylisoxazol-4-yl)-1-(1-(pyridin-2-yl)ethyl)-2-(trifluoromethyl)-1H-pyrrolo[3,2-b]pyridin-3-yl)-2-methylbenzoic acid]", "IC50": "8 to 1000"},
      {"smiles": "Cc1noc(C)c1-c1cnc2c(-c3cccc(C(=O)O)c3Cl)c(C(F)(F)F)n([C@@H](C)c3ccccn3)c2c1", "note": "[P-0247, (S)-2-chloro-3-(6-(3,5-dimethylisoxazol-4-yl)-1-(1-(pyridin-2-yl)ethyl)-2-(trifluoromethyl)-1H-pyrrolo[3,2-b]pyridin-3-yl)benzoic acid]", "IC50": "8 to 1000"},
      {"smiles": "CCOC(=O)c1cc(-c2cn(-c3ccc(F)cc3F)c3ncc(-c4c(C)noc4C)cc23)c(OCC)cc1O", "note": "[P-0248, ethyl 5-(1-(2,4-difluorophenyl)-5-(3,5-dimethylisoxazol-4-yl)-1H-pyrrolo[2,3-b]pyridin-3-yl)-4-ethoxy-2-hydroxybenzoate]", "IC50": "8 to 1000"},
      {"smiles": "CCOc1cc(O)c(C(=O)O)cc1-c1cn(-c2ccc(F)cc2F)c2ncc(-c3c(C)noc3C)cc12", "note": "[P-0249, 5-(1-(2,4-difluorophenyl)-5-(3,5-dimethylisoxazol-4-yl)-1H-pyrrolo[2,3-b]pyridin-3-yl)-4-ethoxy-2-hydroxybenzoic acid]", "IC50": "8 to 1000"},
      {"smiles": "CCOc1cc(OC)c(C(=O)O)cc1-c1cn(-c2ccc(F)cc2F)c2ncc(-c3c(C)noc3C)cc12", "note": "[P-0250, 5-(1-(2,4-difluorophenyl)-5-(3,5-dimethylisoxazol-4-yl)-1H-pyrrolo[2,3-b]pyridin-3-yl)-4-ethoxy-2-methoxybenzoic acid]", "IC50": "8 to 1000"},
      {"smiles": "Cc1noc(C)c1-c1cnc2c(c1)c(-c1ccc(C(=O)O)cc1OC(F)(F)F)cn2-c1cnccc1F", "note": "[P-0251, 4-(5-(3,5-dimethylisoxazol-4-yl)-1-(4-fluoropyridin-3-yl)-1H-pyrrolo[2,3-b]pyridin-3-yl)-3-(trifluoromethoxy)benzoic acid]", "IC50": "8 to 1000"},
      {"smiles": "Cc1noc(C)c1-c1cnc2c(c1)c(-c1ccc(C(=O)O)cc1OC(F)(F)F)cn2-c1cnccc1O", "note": "[P-0252, 4-(5-(3,5-dimethylisoxazol-4-yl)-1-(4-hydroxypyridin-3-yl)-1H-pyrrolo[2,3-b]pyridin-3-yl)-3-(trifluoromethoxy)benzoic acid]", "IC50": "8 to 1000"},
      {"smiles": "Cc1noc(C)c1-c1cnc2c(c1)c(-c1ccc(C(=O)O)cc1OC(F)(F)F)cn2-c1ccncc1Cl", "note": "[P-0253, 4-(1-(3-chloropyridin-4-yl)-5-(3,5-dimethylisoxazol-4-yl)-1H-pyrrolo[2,3-b]pyridin-3-yl)-3-(trifluoromethoxy)benzoic acid]", "IC50": "8 to 1000"},
      {"smiles": "Cc1noc(C)c1-c1cnc2c(c1)c(-c1ccc(C(=O)O)cc1OC(F)(F)F)cn2-c1c(F)cccc1C#N", "note": "[P-0254, 4-(1-(2-cyano-6-fluorophenyl)-5-(3,5-dimethylisoxazol-4-yl)-1H-pyrrolo[2,3-b]pyridin-3-yl)-3-(trifluoromethoxy)benzoic acid]", "IC50": "1 to 8"},
      {"smiles": "COc1cc(C(=O)O)cc(C)c1-c1cn(-c2ccccc2)c2ncc(-c3c(C)noc3C)cc12", "note": "[P-0255, 4-(5-(3,5-dimethylisoxazol-4-yl)-1-phenyl-1H-pyrrolo[2,3-b]pyridin-3-yl)-3-methoxy-5-methylbenzoic acid]", "IC50": "1 to 8"},
      {"smiles": "Cc1noc(C)c1-c1cnc2c(-c3ccc(C(=O)O)cc3C#N)c(C(F)(F)F)n([C@@H](C)c3ccccn3)c2c1", "note": "[P-0256, (S)-3-cyano-4-(6-(3,5-dimethylisoxazol-4-yl)-1-(1-(pyridin-2-yl)ethyl)-2-(trifluoromethyl)-1H-pyrrolo[3,2-b]pyridin-3-yl)benzoic acid]", "IC50": "8 to 1000"},
      {"smiles": "Cc1noc(C)c1-c1cnc2c(-c3cc(C(=O)O)ccc3Cl)c(C(F)(F)F)n([C@@H](C)c3ccccn3)c2c1", "note": "[P-0257, (S)-4-chloro-3-(6-(3,5-dimethylisoxazol-4-yl)-1-(1-(pyridin-2-yl)ethyl)-2-(trifluoromethyl)-1H-pyrrolo[3,2-b]pyridin-3-yl)benzoic acid]", "IC50": "8 to 1000"},
      {"smiles": "CCOc1cc(C(=O)O)cc(OCC)c1-n1cc(-c2cnn(CS(C)(=O)=O)c2)c2ncc(-c3c(C)noc3C)cc21", "note": "[P-0258, 4-(6-(3,5-dimethylisoxazol-4-yl)-3-(1-((methylsulfonyl)methyl)-1H-pyrazol-4-yl)-1H-pyrrolo[3,2-b]pyridin-1-yl)-3,5-diethoxybenzoic acid]", "IC50": "1 to 8"},
      {"smiles": "CCOc1cc(C(=O)O)cc(OCC)c1-n1cc(-c2cn(C(C)C)nc2C)c2ncc(-c3c(C)noc3C)cc21", "note": "[P-0259, 4-(6-(3,5-dimethylisoxazol-4-yl)-3-(1-isopropyl-3-methyl-1H-pyrazol-4-yl)-1H-pyrrolo[3,2-b]pyridin-1-yl)-3,5-diethoxybenzoic acid]", "IC50": "1 to 8"},
      {"smiles": "CCOc1cc(C(=O)O)cc(OCC)c1-n1cc(-c2cnn(CC(C)(C)O)c2)c2ncc(-c3c(C)noc3C)cc21", "note": "[P-0260, 4-(6-(3,5-dimethylisoxazol-4-yl)-3-(1-(2-hydroxy-2-methylpropyl)-1H-pyrazol-4-yl)-1H-pyrrolo[3,2-b]pyridin-1-yl)-3,5-diethoxybenzoic acid]", "IC50": "1 to 8"},
      {"smiles": "CCOc1cc(C(=O)O)cc(OCC)c1-n1cc(-c2cnn(C(F)F)c2)c2ncc(-c3c(C)noc3C)cc21", "note": "[P-0261, 4-(3-(1-(difluoromethyl)-1H-pyrazol-4-yl)-6-(3,5-dimethylisoxazol-4-yl)-1H-pyrrolo[3,2-b]pyridin-1-yl)-3,5-diethoxybenzoic acid]", "IC50": "1 to 8"},
      {"smiles": "CCOc1cc(C(=O)O)cc(OCC)c1-n1cc(-c2cnn(CCN(C)C)c2)c2ncc(-c3c(C)noc3C)cc21", "note": "[P-0262, 4-(3-(1-(2-(dimethylamino)ethyl)-1H-pyrazol-4-yl)-6-(3,5-dimethylisoxazol-4-yl)-1H-pyrrolo[3,2-b]pyridin-1-yl)-3,5-diethoxybenzoic acid]", "IC50": "1 to 8"},
      {"smiles": "CCOc1cc(C(=O)O)cc(OCC)c1-n1cc(-c2cn(C)nc2C)c2ncc(-c3c(C)noc3C)cc21", "note": "[P-0263, 4-(3-(1,3-dimethyl-1H-pyrazol-4-yl)-6-(3,5-dimethylisoxazol-4-yl)-1H-pyrrolo[3,2-b]pyridin-1-yl)-3,5-diethoxybenzoic acid]", "IC50": "1 to 8"},
      {"smiles": "CCOc1cc(C(=O)O)cc(OCC)c1-n1cc(-c2cnn(CC3CC3)c2)c2ncc(-c3c(C)noc3C)cc21", "note": "[P-0264, 4-(3-(1-(cyclopropylmethyl)-1H-pyrazol-4-yl)-6-(3,5-dimethylisoxazol-4-yl)-1H-pyrrolo[3,2-b]pyridin-1-yl)-3,5-diethoxybenzoic acid]", "IC50": "1 to 8"},
      {"smiles": "CCOc1cc(C(=O)O)cc(OCC)c1-n1cc(-c2cnn(C3CC3)c2)c2ncc(-c3c(C)noc3C)cc21", "note": "[P-0265, 4-(3-(1-cyclopropyl-1H-pyrazol-4-yl)-6-(3,5-dimethylisoxazol-4-yl)-1H-pyrrolo[3,2-b]pyridin-1-yl)-3,5-diethoxybenzoic acid]", "IC50": "1 to 8"}
    ]}
  ]
}
